# Biological target: T1, human serum albumin (HSA) (Homo sapiens, UniProt P02768)
# T1 construct: gene ALB; serum albumin in HEPES pH 7.4
# Assay: UV-Vis titration, Benesi-Hildebrand
# Format: binding
# Settings: HEPES pH 7.4, 25 °C, DMSO < 1%
# Text: UV-Vis titration, Benesi-Hildebrand on human serum albumin (HSA)
# T1 sequence (P02768 25-609): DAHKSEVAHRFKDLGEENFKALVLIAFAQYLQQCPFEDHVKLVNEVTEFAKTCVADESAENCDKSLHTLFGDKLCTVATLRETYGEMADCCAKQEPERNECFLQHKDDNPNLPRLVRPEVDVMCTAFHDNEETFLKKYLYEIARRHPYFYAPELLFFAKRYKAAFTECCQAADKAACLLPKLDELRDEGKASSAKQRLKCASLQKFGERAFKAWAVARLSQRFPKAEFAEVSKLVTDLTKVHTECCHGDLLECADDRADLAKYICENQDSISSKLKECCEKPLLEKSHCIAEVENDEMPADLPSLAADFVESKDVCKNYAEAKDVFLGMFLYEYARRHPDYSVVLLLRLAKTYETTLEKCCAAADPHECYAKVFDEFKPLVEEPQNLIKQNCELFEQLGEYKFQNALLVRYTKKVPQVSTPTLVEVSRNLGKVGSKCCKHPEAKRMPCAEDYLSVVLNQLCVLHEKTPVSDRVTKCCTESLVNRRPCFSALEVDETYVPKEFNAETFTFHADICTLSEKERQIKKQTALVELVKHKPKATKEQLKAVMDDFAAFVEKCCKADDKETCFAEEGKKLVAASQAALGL
SMILES,binding constant (Kb) to HSA,binding constant (Kb)
CCN(CC)CCNc1cc(NN=C2CCCc3cc(OC)ccc32)ncn1 [L1],9.92 × 10^4 dm^3/mol,
COc1ccc2c(c1)CCCC2=NNc1cc(NCCN(C)C)ncn1 [L2],4.54 × 10^5 dm^3/mol,
COc1ccc2c(c1)CCCC2=NNc1cc(NCCCN(C)C)ncn1 [L4],,6.82 × 10^4 dm^3/mol

# Reference: article PMC11507521, “Pyrimidine Derivatives as Selective COX-2 Inhibitors with Anti-Inflammatory and Antioxidant Properties” (International Journal of Molecular Sciences, 2024)
